The target in the experiment is T1, recombinant CSE (Rattus norvegicus, UniProt P18757).
T1 construct: GST (N, cleaved yes); made in house; host or cells: E. coli DH5α
As to the kind of experiment: Inhibitory activity towards purified CSE by gas chromatography. It counts as biochemical. Conditions: 100 μM compound, 10 mM L-cysteine. The procedure: Figure 2 Selectivity assessment of hit compounds for 3MST over other H2S/polysulfides-producing enzymes and rhodanese. (a) 3MST-Inhibitory activity of hit compounds at 10 and 100 μM in cell lysate of 3MST-expressing HEK293 cells. 100 μM 3MP and 100 μM DTT were added to the solution containing 0.1% DMSO as a cosolvent, and the mixture was incubated at 37 °C for 15 min. H2S production was measured by gas chromatography. All data are presented as the mean ± S.D. (100 μM: n = 3 or 4; 10 μM: n = 3). (b) Selectivity assessment of hit compounds at 100 μM towards CBS and CSE. Only DMSO was added to the control sample instead of DMSO solution containing hit compounds. H2S production was monitored by gas chromatography. All data are presented as the mean (n = 3). (c) Detection method for rhodanese activity (Sörbo method). (d) Selectivity assessment of hit compounds towards rhodanese. The results are mean ± S.D. (n = 4, three times). These values were determined based upon the absorbance of [Fe(SCN)3] at 460 nm (Sӧrbo method). Bovine rhodanese 1.3–1.7 units/mL, substrate: 52 mM Na2S2O3, 50 mM KCN, 0.004% (w/v) BSA, 100 μM compound and DMSO 1% (v/v) in 88 mM potassium phosphate buffer (pH 8.6) at room temperature for 5 min incubation. (e) Fluorescence confocal microscopic images of live COS7 cells transfected with 3MST or an empty vector[9] as a control. Cells were incubated with 50 μM SSP4, a fluorescent probe for sulfane sulfur, and 10 μM, 1 μM, 0.5 μM, 0.1 or 0 μM compound 3 in DMEM containing 0.6% DMSO for 30 min, then washed with HBSS and placed in fresh DMEM with 0‒10 μM compound 3 (Pre). 500 μM 3MP was added to the cells and the cells were incubated for 10 min (10 min). (f) Graphic representation of (e). F/F0 was calculated by dividing the fluorescence intensity of cells after addition of 500 μM 3MP (10 min) by that of cells before addition of 500 μM 3MP (Pre), then the mean F/F0 was determined from 5 cells. All data represent the mean ± standard error of the mean (SEM) of three experiments.
GST-tagged rat CSE-HA or rat CBS-HA was expressed in E. coli DH5α as follows. […]

Take `NC(=O)c1ccsc1NC(=O)CSc1nc2ccccc2c(=O)[nH]1` [compound 1]: under “read-out: Inhibition of recombinant CSE enzymatic activity (H2S production)”, the inhibition at 100 µM is about 25%.

Consider `Cc1sc2nc(SCC(=O)c3ccc(O)cc3O)[nH]c(=O)c2c1C` [compound 2], for which the “Inhibition of recombinant CSE enzymatic activity (H2S production)” value is given as “enhanced H2S production”.

In the case of `Cc1cc(=O)[nH]c(SCC(=O)c2cccc3ccccc23)n1` [compound 3], the “Inhibition of recombinant CSE enzymatic activity (H2S production)” value is “almost inactive”.

For the origin of these results see paper PMC5228037, “Discovery and Mechanistic Characterization of Selective Inhibitors of H2S-producing Enzyme: 3-Mercaptopyruvate Sulfurtransferase (3MST) Targeting Active-site Cysteine Persulfide” (Scientific Reports, 2017).
